Experimental data as given in patent publication US20210392895A1, “NOVEL OXADIAZOLES” (PI INDUSTRIES LIMITED, priority 2018, published 2021).
Counter-ions that a name gives are not always drawn.

What was measured:
Pyricularia oryzae = assay: microbe, parasite or virus in culture; assay type: cell-based; conditions: 168 h, read-out: control
Phakopsora pachyrhizi = Phakopsora pachyrhizi test in soybean (greenhouse, preventive activity, disease severity rating); assay type: in vivo; conditions: preventive spray on soybean, compared to the untreated check
In short: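 Greenhouse-raised young soybean plants sprayed with compound at stated rates, then inoculated one day later with 2.1×10^6 P. pachyrhizi spores and held at 25° C, 90% RH. Disease severity (0-100%) rated visually 3, 7, 10 and 15 days after application; % control calculated versus untreated plants.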

Alternaria solani = Alternaria solani (early blight of tomato/potato) in vitro test, radial growth on Potato Dextrose Agar; assay type: cell-based; conditions: 168 h, compared to the untreated check, radial growth after seven days, read-out: control
Colletotrichum capsici = Colletotrichum capsici (anthracnose) in vitro test, radial growth on Potato Dextrose Agar; conditions: Colletotrichum truncatum, 168 h, read-out: control
Method: Compounds were dissolved in 0.3% DMSO and then added to Potato Dextrose Agar medium just prior to dispensing it into petri dishes. 5 mL medium with compound in the desired concentration was dispensed into 60 mm sterile petri-plates. After solidification, each plate was seeded with a 5 mm size mycelial disc taken form the periphery of an actively growing virulent culture plate. Plates were incubated in growth chambers at 25° C. temperature and 60% relative humidity for seven days and radial growth was measured.

Structure (SMILES)	inhibition of growth at 300 ppm (Pyricularia oryzae) [%]	pest or weed control at 500 ppm (Phakopsora pachyrhizi) [%]	inhibition of growth at 300 ppm (Alternaria solani) [%]	inhibition of growth at 300 ppm (Colletotrichum capsici) [%]
COc1cccc(C(=O)N2CC(Oc3ccc(-c4noc(C(F)(F)F)n4)cc3)C2)c1 [Compound 17, (3-methoxyphenyl)(3-(4-(5-(trifluoromethyl)-1,2,4-oxadiazol-3-yl)phenoxy)azetidin-1-yl)methanone]	> 70	> 70		
O=C(c1cscn1)N1CC[C@H](Oc2ccc(-c3noc(C(F)(F)F)n3)cn2)C1 [Compound 200, (S)-thiazol-4-yl(3-((5-(5-(trifluoromethyl)-1,2,4-oxadiazol-3-yl)pyridin-2-yl)oxy)pyrrolidin-1-yl)methanone]	> 70		> 70	> 70
O=C(c1ccc(F)cc1)N1CCC(Oc2cccc(-c3noc(C(F)(F)F)n3)c2)C1 (centres unmarked) [Compound 134, (4-fluorophenyl)(3-(3-(5-(trifluoromethyl)-1,2,4-oxadiazol-3-yl)phenoxy)pyrrolidin-1-yl)methanone]	> 70		> 70	
COc1ccc(C(=O)N2CC[C@H](Oc3ccc(-c4noc(C(F)(F)F)n4)cc3)C2)cn1 [Compound 56, (S)-(6-methoxypyridin-3-yl)(3-(4-(5-(trifluoromethyl)-1,2,4-oxadiazol-3-yl)phenoxy)pyrrolidin-1-yl)methanone]	> 70	> 70		
COc1cccc(C(=O)N2CC[C@H](Oc3ccc(-c4noc(C(F)(F)F)n4)cc3)C2)c1 [Compound 1, (S)-(3-methoxyphenyl)(3-(4-(5-(trifluoromethyl)-1,2,4-oxadiazol-3-yl)phenoxy)pyrrolidin-1-yl)methanone]		> 70	> 70	
O=C(c1ccccc1F)N1CCC(Oc2cccc(-c3noc(C(F)(F)F)n3)c2)C1 (centres unmarked) [Compound 132, (2-fluorophenyl)(3-(3-(5-(trifluoromethyl)-1,2,4-oxadiazol-3-yl)phenoxy)pyrrolidin-1-yl)methanone]			> 70	
CN(c1ccc(-c2noc(C(F)(F)F)n2)cc1)C1CN(C(=O)c2cccc(F)c2)C1 [Compound 96, (3-fluorophenyl)(3-(methyl(4-(5-(trifluoromethyl)-1,2,4-oxadiazol-3-yl)phenyl)amino)azetidin-1-yl)methanone]	> 70		> 70	> 70
Cc1ccc(C(=O)N2CC(N(C)c3ccc(-c4noc(C(F)(F)F)n4)cc3)C2)cc1 [Compound 97, (3-(methyl(4-(5-(trifluoromethyl)-1,2,4-oxadiazol-3-yl)phenyl)amino)azetidin-1-yl)(p-tolyl)methanone]	> 70		> 70	
CC(=O)N1CC(N(c2ccc(-c3noc(C(F)(F)F)n3)cc2)c2ccc(-c3noc(C(F)(F)F)n3)cc2)C1 [Compound 90, 1-(3-(bis(4-(5-(trifluoromethyl)-1,2,4-oxadiazol-3-yl)phenyl)amino)azetidin-1-yl)ethan-1-one]	> 70			
CN(c1ccc(-c2noc(C(F)(F)F)n2)cc1)C1CCN(C(=O)OC(C)(C)C)C1 (centres unmarked) [Compound 167, tert-butyl 3-(methyl(4-(5-(trifluoromethyl)-1,2,4-oxadiazol-3-yl)phenyl)amino)pyrrolidine-1-carboxylate]	> 70			
COc1cccc(CC(=O)N2CC[C@H](Oc3ccc(-c4noc(C(F)(F)F)n4)cc3)C2)c1 [Compound 24, (S)-2-(3-methoxyphenyl)-1-(3-(4-(5-(trifluoromethyl)-1,2,4-oxadiazol-3-yl)phenoxy)pyrrolidin-1-yl)ethan-1-one]		> 70	> 70	
FC(F)(F)c1nc(-c2ccc(N(c3ccc(-c4noc(C(F)(F)F)n4)cc3)C3CNC3)cc2)no1 [Compound 86, N,N-bis(4-(5-(trifluoromethyl)-1,2,4-oxadiazol-3-yl)phenyl)azetidin-3-amine Hydrochloride]		> 70	> 70	
CC(C)(C)OC(=O)N1CC[C@H](Oc2ccc(-c3noc(C(F)(F)F)n3)cc2F)C1 [Compound 60, tert-butyl-(S)-3-(2-fluoro-4-(5-(trifluoromethyl)-1,2,4-oxadiazol-3-yl)phenoxy)pyrrolidine-1-carboxylate]	> 70	> 70		
CN(c1ccc(-c2noc(C(F)(F)F)n2)cc1)C1CN(C(=O)c2ccccc2)C1 [Compound 87, (3-(methyl(4-(5-(trifluoromethyl)-1,2,4-oxadiazol-3-yl)phenyl)amino)azetidin-1-yl)(phenyl)methanone]		> 70		> 70
Cc1ccc(C(=O)N2CCC(Oc3cccc(-c4noc(C(F)(F)F)n4)c3)C2)cc1 (centres unmarked) [Compound 135, p-tolyl(3-(3-(5-(trifluoromethyl)-1,2,4-oxadiazol-3-yl)phenoxy)pyrrolidin-1-yl)methanone]	> 70			
O=C(Cc1ccccc1)N1CC[C@H](Oc2ccc(-c3noc(C(F)(F)F)n3)cc2)C1 [Compound 11, (S)-2-phenyl-1-(3-(4-(5-(trifluoromethyl)-1,2,4-oxadiazol-3-yl)phenoxy)pyrrolidin-1-yl)ethan-1-one]	> 70	> 70		
O=C(c1ccccc1F)N1CC[C@H](Oc2ccc(-c3noc(C(F)(F)F)n3)cc2)C1 [Compound 6, (S)-(2-fluorophenyl)(3-(4-(5-(trifluoromethyl)-1,2,4-oxadiazol-3-yl)phenoxy)pyrrolidin-1-yl)methanone]			> 70	
COc1ccc(C(=O)N2CC(N(C)c3ccc(-c4noc(C(F)(F)F)n4)cc3)C2)cc1 [Compound 98, (4-methoxyphenyl)(3-(methyl(4-(5-(trifluoromethyl)-1,2,4-oxadiazol-3-yl)phenyl)amino)azetidin-1-yl)methanone]	> 70		> 70	
COc1cccc(S(=O)(=O)N2CC(N(C)c3ccc(-c4noc(C(F)(F)F)n4)cc3)C2)c1 [Compound 198, 1-((3-methoxyphenyl)sulfonyl)-N-methyl-N-(4-(5-(trifluoromethyl)-1,2,4-oxadiazol-3-yl)phenyl)azetidin-3-amine]	> 70			
O=C(c1cccnc1)N1CC[C@H](Oc2ccc(-c3noc(C(F)(F)F)n3)cc2F)C1 [Compound 58, (S)-(3-(2-fluoro-4-(5-(trifluoromethyl)-1,2,4-oxadiazol-3-yl)phenoxy)pyrrolidin-1-yl)(pyridin-3-yl)methanone]	> 70		> 70	
O=C(c1ccncc1)N1CC[C@@H](Oc2ccc(-c3noc(C(F)(F)F)n3)cn2)C1 [Compound 78, (R)-pyridin-4-yl(3-((5-(5-(trifluoromethyl)-1,2,4-oxadiazol-3-yl)pyridin-2-yl)oxy)pyrrolidin-1-yl)methanone]	> 70			
O=C(c1ccccc1F)N1CC[C@H](Oc2ccc(-c3noc(C(F)(F)F)n3)cn2)C1 [Compound 45, (S)-(2-fluorophenyl)(3-((5-(5-(trifluoromethyl)-1,2,4-oxadiazol-3-yl)pyridin-2-yl)oxy)pyrrolidin-1-yl)methanone]	> 70	> 70		
O=C(c1ccccc1)N1CC[C@@H](Sc2ccc(-c3noc(C(F)(F)F)n3)cc2)C1 [Compound 177, (R)-phenyl(3-((4-(5-(trifluoromethyl)-1,2,4-oxadiazol-3-yl)phenyl)thio)pyrrolidin-1-yl)methanone]	> 70			
CCS(=O)(=O)N1CC[C@H](Oc2ccc(-c3noc(C(F)(F)F)n3)cc2F)C1 [Compound 61, (S)-3-(4-((1-(ethylsulfonyl)pyrrolidin-3-yl)oxy)-3-fluorophenyl)-5-(trifluoromethyl)-1,2,4-oxadiazole]	> 70	> 70		
O=C(c1cccc(F)c1)N1CCC(Oc2cccc(-c3noc(C(F)(F)F)n3)c2)C1 (centres unmarked) [Compound 133, (3-fluorophenyl)(3-(3-(5-(trifluoromethyl)-1,2,4-oxadiazol-3-yl)phenoxy)pyrrolidin-1-yl)methanone]	> 70		> 70	
CC(C)S(=O)(=O)N1CC[C@H](Oc2ccc(-c3noc(C(F)(F)F)n3)cc2)C1 [Compound 136, (S)-3-(4-((1-(isopropylsulfonyl)pyrrolidin-3-yl)oxy)phenyl)-5-(trifluoromethyl)-1,2,4-oxadiazole]				> 70
COc1ccc(CC(=O)N2CC[C@H](Oc3ccc(-c4noc(C(F)(F)F)n4)cc3)C2)cc1OC [Compound 5, (S)-2-(3,4-dimethoxyphenyl)-1-(3-(4-(5-(trifluoromethyl)-1,2,4-oxadiazol-3-yl)phenoxy)pyrrolidin-1-yl)ethan-1-one]	> 70	> 70		
Cc1cccc(C(=O)N2CC[C@@H](Sc3ccc(-c4noc(C(F)(F)F)n4)cc3)C2)c1 [Compound 172, (R)-m-tolyl(3-((4-(5-(trifluoromethyl)-1,2,4-oxadiazol-3-yl)phenyl)thio)pyrrolidin-1-yl)methanone]	> 70			
CN(c1ccc(-c2noc(C(F)(F)F)n2)cc1)C1CN(C(=O)Cc2ccccc2)C1 [Compound 99, 1-(3-(methyl(4-(5-(trifluoromethyl)-1,2,4-oxadiazol-3-yl)phenyl)amino)azetidin-1-yl)-2-phenylethan-1-one]	> 70		> 70	
